Data: patent US8022091B2, “Triazole derivative” (Taisho Pharmaceutical Co., Ltd., priority 2006, dated 2011)

molecular target: T1, human Edg-1 (S1P1) (Homo sapiens, UniProt P21453); test: S1P1 binding assay: inhibition of [33P]-S1P binding to membrane fraction of HEK-293 cells transferred with the human Edg-1 (S1P1) gene; conditions: [33P]-S1P 0.1 nM, human Edg-1 (S1P1) HEK-293 membrane fraction, 1 h at 30° C.; read-out: IC50 (concentration at which binding in the absence of the test compound was inhibited by 50%)
T1 construct: expressed in transfected cells; host or cells: HEK-293
T1 sequence (P21453 whole entry): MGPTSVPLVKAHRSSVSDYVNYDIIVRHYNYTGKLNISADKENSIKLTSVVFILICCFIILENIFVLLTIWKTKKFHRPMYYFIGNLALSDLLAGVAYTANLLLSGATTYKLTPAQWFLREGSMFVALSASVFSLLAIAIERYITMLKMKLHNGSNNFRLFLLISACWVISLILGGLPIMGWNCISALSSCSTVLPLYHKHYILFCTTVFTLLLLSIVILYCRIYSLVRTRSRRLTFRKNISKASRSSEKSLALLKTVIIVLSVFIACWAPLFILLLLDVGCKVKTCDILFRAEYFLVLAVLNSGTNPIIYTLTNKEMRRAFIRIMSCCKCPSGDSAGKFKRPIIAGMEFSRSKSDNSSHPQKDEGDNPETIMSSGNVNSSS
Procedure: The membrane fraction was obtained by treating the cells with a solubilizing buffer (1 mM Tris/HCl, pH 7.2) for 10 minutes on ice, centrifuging at 1000×g for 5 minutes to remove insoluble fractions, and then centrifuging at 40000×g for 30 minutes at 4° C. The resulting membrane fraction was dissolved in a binding buffer (20 mM Tris-HCl, pH 7.4, 100 mM NaCl, 15 mM NaF, 2 mM deoxypyridoxine, 4 mg/mL fatty acid-free BSA), and then [^33P]-S1P (manufactured by ARC, final concentration 0.1 nM) and a DMSO solution (final concentration of the compound 10^−5M, final concentration of DMSO 0.1%) of the test compound were added. Thereafter, the mixture was stirred and then treated for one hour at 30° C. Using a harvester, the membrane fraction was harvested onto unifilter-96 GF/C filter (manufactured by Perkin Elmer), washing was carried out four times with the binding buffer, and the filter was dried. Twenty five μL Microscint 0 (manufactured by Perkin Elmer) was added, and radioactivity was measured using Top Count NXT (manufactured by Packard) to calculate the amount (A) of [^33P]-S1P bound to the membrane fraction at the time when the compound was added.
The same procedure was carried out in the absence of the test compound, and the amount (B) of [^33P]-S1P bound was calculated. Further, the same procedure was carried out in the absence of the test compound by use of HEK-293 cells to which no Edg-1 (S1P1) gene was introduced, and the background amount (C) of [^33P]-S1P bound was calculated.
Inhibition rate (%)=[1−(A−C)/(B−C)]×100
Further, concentrations (IC50) at the time when binding in the absence of the test compound was inhibited by 50% were calculated. The membrane system binding assay was carried out in the presence of test compounds with various concentrations, and the Edg-1 (S1P1) binding inhibition rates were calculated using the equation above. Then, IC50 values were calculated using Origin (Lightstone Corp.), a software for data analysis.

| Compound | IC50 |
| --- | --- |
| CCn1c(Oc2cccc(N3CCN(C)CC3)c2)nnc1[C@@H](C)NS(=O)(=O)c1ccc(Cl)c(Cl)c1 [Compound 45, 3,4-Dichloro-N-((R)-1-[4-ethyl-5-[3-(4-methyl-piperazin-1-yl)-phenoxy]-4H-[1,2,4]triazol-3-yl]-ethyl)-benzenesulfonamide] | 4.2 nM |
| CCn1c(Nc2ccc(C)cc2)nnc1[C@@H](C)NS(=O)(=O)c1ccc(Cl)c(Cl)c1 [Compound 61, N-[(1R)-1-(4-Ethyl-5(4-methylphenylamino)-4H-[1,2,4]triazol-3-yl)ethyl]3,4-dichlorobenzenesulfonamide] | 39 nM |
| CCn1c(Oc2cccc(N3CCC4(CC3)OCCO4)c2)nnc1[C@@H](C)NS(=O)(=O)c1ccc(Cl)c(Cl)c1 [Compound 87, 3,4-Dichloro-N-((R)-1-[5-[3-(1,4-dioxa-8-aza-spiro[4.5]decan-8-yl)-phenoxy]-4-ethyl-4H-[1,2,4]triazol-3-yl]-ethyl)-benzenesulfonamide] | ≤ 10 nM |
| CCn1c(Oc2cccc(N3CCC(=O)CC3)c2)nnc1[C@@H](C)NS(=O)(=O)c1ccc(Cl)c(Cl)c1 [Compound 88, 3,4-Dichloro-N-((R)-1-[4-ethyl-5-[3-(4-oxo-piperidin-1-yl)-phenoxy]-4H-[1,2,4]triazol-3-yl]-ethyl)-benzenesulfonamide] | 5.4 nM |
| CCn1c(Oc2cccc(N(CCOC)CCOC)c2)nnc1[C@@H](C)NS(=O)(=O)c1ccc(Cl)c(Cl)c1 [Compound 100] | 18.5 nM |
| CCn1c(Oc2ccc3cc[nH]c3c2)nnc1[C@@H](C)NS(=O)(=O)c1ccc2c(Cl)cccc2c1 [Compound 151] | ≤ 10 nM |

same assay, conditions: test compound at 10 μM; inhibition of [33P]-S1P binding to the membrane fraction of HEK-293 cells expressing human Edg-1 (S1P1)

| Compound | inhibition at 10 µM |
| --- | --- |
| CCn1c(Oc2cccc(N3CCN(C)CC3)c2)nnc1[C@@H](C)NS(=O)(=O)c1ccc(Cl)c(Cl)c1 [Compound 45, 3,4-Dichloro-N-((R)-1-[4-ethyl-5-[3-(4-methyl-piperazin-1-yl)-phenoxy]-4H-[1,2,4]triazol-3-yl]-ethyl)-benzenesulfonamide] | 106% |
| CCn1c(Sc2ccc(C)cc2)nnc1[C@@H](C)NS(=O)(=O)c1ccc(Cl)c(Cl)c1 [Compound 55, 3,4-Dichloro-N-[(R)-1-(4-ethyl-5(4-methylbenzenesulfanyl)-4H-[1,2,4]triazol-3-yl)-ethyl]-benzenesulfonamide] | 80.6% |
| CCn1c(Cc2ccc(C)cc2)nnc1[C@@H](C)NS(=O)(=O)c1ccc(Cl)c(Cl)c1 [Compound 56, 3,4-Dichloro-N-[(R)-1-[4-ethyl-5(4-methylbenzyl)-4H-[1,2,4]triazol-3-yl]-ethyl]-benzenesulfonamide] | 88.3% |
| CCn1c(Nc2ccc(C)cc2)nnc1[C@@H](C)NS(=O)(=O)c1ccc(Cl)c(Cl)c1 [Compound 61, N-[(1R)-1-(4-Ethyl-5(4-methylphenylamino)-4H-[1,2,4]triazol-3-yl)ethyl]3,4-dichlorobenzenesulfonamide] | 102% |
| CCn1c(Oc2cccc(N3CCC4(CC3)OCCO4)c2)nnc1[C@@H](C)NS(=O)(=O)c1ccc(Cl)c(Cl)c1 [Compound 87, 3,4-Dichloro-N-((R)-1-[5-[3-(1,4-dioxa-8-aza-spiro[4.5]decan-8-yl)-phenoxy]-4-ethyl-4H-[1,2,4]triazol-3-yl]-ethyl)-benzenesulfonamide] | 99.9% |
| CCn1c(Oc2cccc(N3CCC(=O)CC3)c2)nnc1[C@@H](C)NS(=O)(=O)c1ccc(Cl)c(Cl)c1 [Compound 88, 3,4-Dichloro-N-((R)-1-[4-ethyl-5-[3-(4-oxo-piperidin-1-yl)-phenoxy]-4H-[1,2,4]triazol-3-yl]-ethyl)-benzenesulfonamide] | 99.5% |
| CCn1c(Oc2cccc(N(CCOC)CCOC)c2)nnc1[C@@H](C)NS(=O)(=O)c1ccc(Cl)c(Cl)c1 [Compound 100] | 110% |
| CCn1c(Oc2ccc(F)cc2)nnc1[C@@H](C)N(C)S(=O)(=O)c1ccc(Cl)c(Cl)c1 [Compound 115, 3,4-Dichloro-N-[(R)-1-[4-ethyl-5-(4-fluorophenoxy)-4H-[1,2,4]triazol-3-yl]-ethyl]-N-methyl-benzenesulfonamide] | 81.8% |
| CCn1c(Oc2ccc(F)cc2)nnc1[C@@H](C)NS(=O)(=O)c1ccc(C)c(Cl)c1 [Compound 127] | 94.4% |
| CCn1c(Oc2ccc(F)cc2)nnc1[C@@H](C)NS(=O)(=O)c1ccc(C(C)=O)cc1 [Compound 154] | 92.3% |
| CCn1c(Oc2ccc(F)cc2)nnc1[C@@H](C)NS(=O)(=O)c1ccccc1 [Compound 155] | 59.9% |
| CCn1c(Oc2ccc(F)cc2)nnc1[C@@H](C)NS(=O)(=O)c1ccc(Br)cc1 [Compound 156] | 107% |
| CCn1c(Oc2ccc(F)cc2)nnc1[C@@H](C)NS(=O)(=O)c1ccc(C(C)(C)C)cc1 [Compound 157] | 74.6% |
| CCn1c(Oc2ccc(F)cc2)nnc1[C@@H](C)NS(=O)(=O)c1cccc(Br)c1 [Compound 160] | 96.9% |
| CCn1c(Oc2ccc(F)cc2)nnc1[C@@H](C)NS(=O)(=O)c1ccc(Cl)cc1 [Compound 162] | 109% |
| CCn1c(Oc2ccc(F)cc2)nnc1[C@@H](C)NS(=O)(=O)c1cccc(C#N)c1 [Compound 165] | 72.9% |
| CCn1c(Oc2ccc(F)cc2)nnc1[C@@H](C)NS(=O)(=O)c1cc(C)c(Cl)cc1C [Compound 167] | 113% |
| CCn1c(Oc2ccc(F)cc2)nnc1[C@@H](C)NS(=O)(=O)c1cc(Cl)ccc1Cl [Compound 168] | 68.4% |
| CCn1c(Oc2ccc(F)cc2)nnc1[C@@H](C)NS(=O)(=O)c1ccc(OC)c(OC)c1 [Compound 170] | 76% |
| CCc1ccc(S(=O)(=O)N[C@H](C)c2nnc(Oc3ccc(F)cc3)n2CC)cc1 [Compound 172] | 92% |
| CCn1c(Oc2ccc(F)cc2)nnc1[C@@H](C)NS(=O)(=O)c1ccc(F)cc1 [Compound 173] | 97.2% |

| Compound | inhibition at 10 µM |
| --- | --- |
| CCn1c(Oc2ccc(F)cc2)nnc1C(C)(C)NS(=O)(=O)c1c(C)cc(C)cc1C [Compound 174] | 52.5% |
| CCn1c(Oc2ccc(F)cc2)nnc1[C@@H](C)NS(=O)(=O)c1ccc(OC)cc1 [Compound 175, N-[(R)-1-[4-Ethyl-5-(4-fluorophenoxy)-4H-[1,2,4]triazol-3-yl]-ethyl]-4-methoxybenzenesulfonamide] | 103% |
| CCn1c(Oc2ccc(F)cc2)nnc1[C@@H](C)NS(=O)(=O)c1ccc(S(C)(=O)=O)cc1 [Compound 177] | 55.3% |
| CCn1c(Oc2ccc(F)cc2)nnc1[C@@H](C)NS(=O)(=O)c1cccc2ccccc12 [Compound 179] | 83% |
| CCn1c(Oc2ccc(F)cc2)nnc1[C@@H](C)NS(=O)(=O)CCc1cccc2ccccc12 [Compound 180] | 94.6% |
| CCn1c(Oc2ccc(F)cc2)nnc1[C@@H](C)NS(=O)(=O)c1c(F)c(F)c(F)c(F)c1F [Compound 181] | 50.4% |
| CCn1c(Oc2ccc(F)cc2)nnc1[C@@H](C)NS(=O)(=O)c1ccc(I)cc1 [Compound 182] | 109% |
| CCn1c(Oc2ccc(F)cc2)nnc1[C@@H](C)NS(=O)(=O)/C=C/c1ccccc1 [Compound 183] | 92.8% |
| CCn1c(Oc2ccc(F)cc2)nnc1[C@@H](C)NS(=O)(=O)c1cc(Cl)c(Cl)cc1Cl [Compound 184] | 97.3% |
| CCn1c(Oc2ccc(F)cc2)nnc1[C@@H](C)NS(=O)(=O)c1ccc(C)cc1 [Compound 186] | 86.8% |
| CCn1c(Oc2ccc(F)cc2)nnc1[C@@H](C)NS(=O)(=O)c1cccc(C(F)(F)F)c1 [Compound 188] | 107% |
| CCn1c(Oc2ccc(F)cc2)nnc1[C@@H](C)NS(=O)(=O)c1ccccc1C [Compound 189] | 99.7% |
| CCn1c(Oc2ccc(F)cc2)nnc1[C@@H](C)NS(=O)(=O)c1ccc(OC(F)(F)F)cc1 [Compound 190] | 87.9% |
| C=Cc1ccc(S(=O)(=O)N[C@H](C)c2nnc(Oc3ccc(F)cc3)n2CC)cc1 [Compound 191] | 96.9% |
| CCn1c(Oc2ccc(F)cc2)nnc1[C@@H](C)NS(=O)(=O)c1cccc(C)c1 [Compound 192] | 95.2% |
| CCn1c(Oc2ccc(F)cc2)nnc1[C@@H](C)NS(=O)(=O)c1ccc2c(c1)CN(C(=O)C(F)(F)F)CC2 [Compound 194] | 80.7% |
| CCn1c(Oc2ccc(F)cc2)nnc1[C@@H](C)NS(=O)(=O)c1cc(C)ccc1C [Compound 195] | 90.1% |
| CCn1c(Oc2ccc(F)cc2)nnc1[C@@H](C)NS(=O)(=O)c1ccc(-c2csnn2)s1 [Compound 196] | 65.6% |
| CCn1c(Oc2ccc(F)cc2)nnc1[C@@H](C)NS(=O)(=O)c1ccc(C(=O)OC)n1C [Compound 201] | 84.3% |
| CCCc1ccc(S(=O)(=O)N[C@H](C)c2nnc(Oc3ccc(F)cc3)n2CC)cc1 [Compound 206] | 85.4% |
